Data on 4 molecules can be found in patent US20140336141A1, “MAO-B INHIBITORS DERIVED FROM THE ONE-CARBON CYCLE” (RANDOX LABORATORIES LTD., priority 2011, published 2014).

Assay [1] has as its system Mao-B. The assay is described as follows: Mao-B protein levels by Western blot in differentiated SH-SY5Y cells. Format: cell-based. The note with it: for Densitometric quantification Exp. 2 / Densitometric quantification Exp. 3 / Densitometric quantification Exp. 1: Mao-B Western blot band signal, Aza 625 nM, SAM 25 μM, Vit B6 5 μg/ml, Vit B12 7.5 μg/ml; for Densitometric quantification Exp. 2 / Densitometric quantification Exp. 3 / % MAO-B of untreated cells Exp. 2 / % MAO-B of untreated cells Exp. 3 / Densitometric quantification Exp. 1 / % MAO-B of untreated cells Exp. 1: differentiated SH-SY5Y cells treated Days 8 to 12; for % MAO-B of untreated cells Exp. 2 / % MAO-B of untreated cells Exp. 3 / % MAO-B of untreated cells Exp. 1: untreated set 100%; for % MAO-B of untreated cells Average: differentiated SH-SY5Y cells, average of the experiments. On the procedure: The neuroblastoma cell line SH-SY5Y was seeded at 110,000 cell/6-well. Neuronal differentiation treatment was started on the next day (=Day 0) by addition of 10 μM retinoic acid every second day until Day 6. On Day 8 differentiation treatment was switched to 4 μM uridine (Ur), 5 μM 5-fluoro-2′-deoxyuridine FdUr), and 1 μM cytosine beta-D-arabinofuranoside (araC). During mitotic inhibitor addition (=Days 8 to 12) cells were left untreated or treated with 625 nM 5-aza-2′-deoxycytidine (Aza), 25 μM S-adenosylmethionine (SAM), 5 μg/ml vitamin B6 (Vit B6), 7.5 μg/ml vitamin B12 (Vit B12), or 5 μg/ml vitamin B6/7.5 μg/ml vitamin B12. On Day 12 cells were harvested. Cells were washed twice with chilled PBS, scraped off in PBS/protease inhibitors, and centrifuged at 15000×g at 4 C for 10 min. The pellet was reconstituted in 150 μl PBS/protease inhibitors and precipitated with 50 μl trichloroacetic acid/80 mMDTT for 1 hour at 4 C. After centrifugation at 15000×g at 4 C for 10 min, precipitated protein was washed four times with 0.6 ml acetone/20 mM DTT and stored at −80 C until analysis. The dried total protein pellet was reconstituted in 7M urea/2M thiourea/4% CHAPS buffer and the protein concentration was determined using the Coomassie Plus (Bradford) Protein Assay (Pierce, Thermo Scientific). Equal protein amounts were loaded onto an 11% SDS polyacrylamide gel and proteins were blotted onto nitrocellulose. Mao-B was detected using a polyclonal Goat anti-Mao-B antibody (sc18401, Santa Cruz) and DyLight 649 AffiniPureF(ab′)2 Fragment Donkey Anti-Goat IgGgamma (Jackson ImmunoResearch Laboratories, Inc.), and a Typhoon scanner (GE Healthcare Life Sciences). Results were analysed with the software ImageJ. The signals of the Mao-B bands of SAM treated and untreated differentiated SH-SY5Y cells were compared and the latter was set 100%.
(A western blot detects proteins with antibodies after separation by electrophoresis.)

Assay [2] has as its system Mao-B. Description: MAO-B protein expression by Western blot in HepG2 cells, normalised against GAPDH and 14-3-3 gamma. Format: cell-based. The settings on record: 10 μM 5-aza-2-deoxycytidine for 1, 2, or 3 days; FIG. 3. How it is done: HepG2 cells were grown in DMEM low glucose/10% FBS and were treated with 10 μM 5-aza-2-deoxycytidine for 1, 2, or 3 days. Untreated HepG2 cells served as controls. Cells were scraped in precipitation buffer (PBS/25% trichloroacetic acid/20 mM DTT/protease inhibitors) at 4 C and proteins were precipitated for 1 hour at 4 C. Precipitated proteins were pelleted at 15000 rpm for 10 min (4 C) and washed 4 times with 700 μl acetone/20 mM DTT. Before analysis by SDS PAGE and Western blot, the precipitated samples were reconstituted in DIGE buffer/1% pH 4-7 ampholyte. Six parallel experiments were performed. […] Two normalisation compounds were used: GAPDH (glyceraldehyde 3-phosphate dehydrogenase) and 14-3-3 gamma (protein kinase C inhibitor protein 1). Each Mao-B band signal was divided by the respective GAPDH or 14-3-3 gamma band signal to achieve normalisation.
HepG2 cells were grown in DMEM low glucose/2% FBS and were treated with vitamin B6 (300 μg/ml) and vitamin B12 (74.4 μg/ml) for 1, 3, 4, 5 and 7 days. Untreated HepG2 cells served as controls. Cells were harvested and analysed by Western blot.

The subject of the next assay is platelet MAO activity. The settings on record: LOAD patients, vitamin B12 therapy; cited from earlier work.

In the case of `Nc1ncn([C@H]2C[C@H](O)[C@@H](CO)O2)c(=O)n1` [Aza, 5-aza-2′-deoxycytidine], in the assay on Mao-B [1], the “Densitometric quantification Exp. 2” value was found to be 1116.9, the “Densitometric quantification Exp. 3” value was determined as 973.5, the “% MAO-B of untreated cells Exp. 2” value is recorded as 100% and the “% MAO-B of untreated cells Exp. 3” value was determined as 87%. Moreover, the “% MAO-B of untreated cells Average” value in the assay with Mao-B [1] is given as 94%. Moreover, in the assay on Mao-B [2], the “MAO-B protein expression in HepG2 cells” value is “increased levels of MAO-B are expressed”.

On to `C[S+](CC[C@H](N)C(=O)O)C[C@H]1O[C@@H](n2cnc3c(N)ncnc32)[C@H](O)[C@@H]1O` (stereo partly shown) [SAM, S-adenosylmethionine], for which, in the assay with Mao-B [1], the “Densitometric quantification Exp. 1” value came to 2482.6, the “Densitometric quantification Exp. 2” value stood at 990.4, the “Densitometric quantification Exp. 3” value is on record as 1006.8 and the “% MAO-B of untreated cells Exp. 1” value was determined as 60%. In addition, in the assay on Mao-B [1], the “% MAO-B of untreated cells Exp. 2” value is 89%, the “% MAO-B of untreated cells Exp. 3” value is 90% and the “% MAO-B of untreated cells Average” value is listed as 80%.

For the molecule vitamin B6 [Vit B6], in the assay with Mao-B [1], the “Densitometric quantification Exp. 1” value is reported as 4087.1, the “Densitometric quantification Exp. 2” value was 1008.1, the “Densitometric quantification Exp. 3” value is 1004.8 and the “% MAO-B of untreated cells Exp. 1” value is given as 99%. In the assay with Mao-B [1], the “% MAO-B of untreated cells Exp. 2” value is listed as 90%, the “% MAO-B of untreated cells Exp. 3” value turned out to be 90% and the “% MAO-B of untreated cells Average” value was 93%.

vitamin B12 [Vit B12]: in the assay on Mao-B [1], the “Densitometric quantification Exp. 1” value was found to be 3823.5, the “Densitometric quantification Exp. 2” value turned out to be 857.8, the “Densitometric quantification Exp. 3” value is reported as 695.3 and the “% MAO-B of untreated cells Exp. 1” value was found to be 93%. For the same molecule, in the assay on Mao-B [1], the “% MAO-B of untreated cells Exp. 2” value came out at 77%, the “% MAO-B of untreated cells Exp. 3” value worked out at 62% and the “% MAO-B of untreated cells Average” value is recorded as 77%. Besides, the “platelet MAO activity” value in the assay with platelet MAO activity is given as “significantly reduced”.
